Assay results as given in US20250296953A1, “3,4-THIAZOLO-STEROIDS AND METHODS OF MAKING AND USING THE SAME” (Arkansas State University - Jonesboro, priority 2018, published 2025).
Like-named read-outs stand apart in the source and are kept apart here.

Tests used:
[1] = system: 60 different human tumor cell lines; assay: cells
SF-539 = assay: NCI 60 one dose screen; assay type: cell-based, human; conditions: one dose; CNS Cancer; SF-539
glioblastoma (SF-295) = assay: NCI 60 five dose screen
[2] = system: 60 different human tumor cell lines; assay: NCI Development Therapeutics Program 60 cell line screen, one dose; assay type: cell-based

C[C@]12CCc3sc(Nc4cccc(O)c4)nc3C1=CC[C@@H]1[C@@H]2CC[C@]2(C)C(=O)CC[C@@H]12 [IIa.17, (1S,2R,13R,14S,18S)-7-(3-hydroxyanilino)-2,18-dimethyl-6-thia-8-azapentacyclo[11.7.0.02,10.05,9.014,18]icosa-5(9),7,10-trien-17-one]
GI50 ([1]; 60 cell): 5.52 µM
CC50 ([1]; 60 cell, read-out: LC50): > 100 µM
GI50 ([1]; 786-0): 3.02 µM
CC50 ([1]; 786-0, read-out: LC50): > 100 µM
GI50 ([1]; A498): 28.8 µM
CC50 ([1]; A498, read-out: LC50): > 100 µM
GI50 ([1]; A549): 26.4 µM
CC50 ([1]; A549, read-out: LC50): > 100 µM
GI50 ([1]; ACHN): 7.81 µM
CC50 ([1]; ACHN, read-out: LC50): > 100 µM
GI50 ([1]; BT-549): 4.58 µM
CC50 ([1]; BT-549, read-out: LC50): > 100 µM
GI50 ([1]; CAKI-1): 13 µM
CC50 ([1]; CAKI-1, read-out: LC50): 70 µM
GI50 ([1]; CCRF-CEM): 2.84 µM
CC50 ([1]; CCRF-CEM, read-out: LC50): > 100 µM
GI50 ([1]; COLO 205): 12.3 µM
CC50 ([1]; COLO 205, read-out: LC50): > 100 µM
GI50 ([1]; DU-145): 4.34 µM
CC50 ([1]; DU-145, read-out: LC50): > 100 µM
GI50 ([1]; EKVX): 28.8 µM
CC50 ([1]; EKVX, read-out: LC50): > 100 µM
GI50 ([1]; HCC 2998): 18.2 µM
CC50 ([1]; HCC 2998, read-out: LC50): > 100 µM
GI50 ([1]; HCT-15): 2.53 µM
CC50 ([1]; HCT-15, read-out: LC50): > 100 µM
GI50 ([1]; HCT-116): 1.91 µM
CC50 ([1]; HCT-116, read-out: LC50): 9.09 µM
GI50 ([1]; HOP-62): 22.4 µM
CC50 ([1]; HOP-62, read-out: LC50): > 100 µM
GI50 ([1]; HOP-92): 18.7 µM
GI50 ([1]; HT-29): 3.9 µM
CC50 ([1]; HT-29, read-out: LC50): 75.2 µM
GI50 ([1]; Hs-578T): 12 µM
CC50 ([1]; Hs-578T, read-out: LC50): > 100 µM
GI50 ([1]; IGROV-1): 8.21 µM
CC50 ([1]; IGROV-1, read-out: LC50): > 100 µM
GI50 ([1]; K562): 2.79 µM
CC50 ([1]; K562, read-out: LC50): > 100 µM
GI50 ([1]; KM12): 8.27 µM
CC50 ([1]; KM12, read-out: LC50): 94.7 µM
GI50 ([1]; LOX IMVI): 3.22 µM
CC50 ([1]; LOX IMVI, read-out: LC50): 48.1 µM
GI50 ([1]; M14): 7.88 µM
CC50 ([1]; M14, read-out: LC50): > 100 µM
GI50 ([1]; MCF7): 3.85 µM
CC50 ([1]; MCF7, read-out: LC50): > 100 µM
GI50 ([1]; MDA-MB-231): 13.4 µM
CC50 ([1]; MDA-MB-231, read-out: LC50): > 100 µM
GI50 ([1]; MDA-MB-435): 3.49 µM
CC50 ([1]; MDA-MB-435, read-out: LC50): > 100 µM
GI50 ([1]; MDA-MB-468): 3.59 µM
CC50 ([1]; MDA-MB-468, read-out: LC50): 54.7 µM
GI50 ([1]; MOLT-4): 2.84 µM
CC50 ([1]; MOLT-4, read-out: LC50): ≥ 100 µM
GI50 ([1]; Malme-3M): 21.2 µM
CC50 ([1]; Malme-3M, read-out: LC50): > 100 µM
GI50 ([1]; NCI-H23): 18.1 µM
CC50 ([1]; NCI-H23, read-out: LC50): > 100 µM
GI50 ([1]; NCI-H226): 7.36 µM
CC50 ([1]; NCI-H226, read-out: LC50): > 100 µM
GI50 ([1]; NCI-H322M): 50.5 µM
CC50 ([1]; NCI-H322M, read-out: LC50): > 100 µM
GI50 ([1]; NCI-H460): 4.65 µM
CC50 ([1]; NCI-H460, read-out: LC50): > 100 µM
GI50 ([1]; NCI-H522): 6.6 µM
CC50 ([1]; NCI-H522, read-out: LC50): 69.3 µM
GI50 ([1]; NCI/ADR-RES): 6.34 µM
CC50 ([1]; NCI/ADR-RES, read-out: LC50): > 100 µM
GI50 ([1]; OVCAR-3): 4.41 µM
CC50 ([1]; OVCAR-3, read-out: LC50): > 100 µM
GI50 ([1]; OVCAR-4): 18.9 µM
CC50 ([1]; OVCAR-4, read-out: LC50): > 100 µM
GI50 ([1]; OVCAR-5): 24.5 µM
CC50 ([1]; OVCAR-5, read-out: LC50): > 100 µM
GI50 ([1]; OVCAR-8): 7.61 µM
CC50 ([1]; OVCAR-8, read-out: LC50): > 100 µM
GI50 ([1]; RXF 393): 3.18 µM
CC50 ([1]; RXF 393, read-out: LC50): 48.9 µM
GI50 ([1]; SF-268): 5.95 µM
CC50 ([1]; SF-268, read-out: LC50): > 100 µM
GI50 ([1]; SK-MEL-2): 17.1 µM
CC50 ([1]; SK-MEL-2, read-out: LC50): > 100 µM
GI50 ([1]; SK-MEL-5): 10.2 µM
CC50 ([1]; SK-MEL-5, read-out: LC50): 62.5 µM
GI50 ([1]; SK-MEL-28): 20.5 µM
CC50 ([1]; SK-MEL-28, read-out: LC50): > 100 µM
GI50 ([1]; SK-OV-3): 34 µM
CC50 ([1]; SK-OV-3, read-out: LC50): > 100 µM
GI50 ([1]; SN12C): 3.81 µM
CC50 ([1]; SN12C, read-out: LC50): > 100 µM
GI50 ([1]; SNB-19): 12.9 µM
CC50 ([1]; SNB-19, read-out: LC50): > 100 µM
GI50 ([1]; SNB-75): 5.4 µM
CC50 ([1]; SNB-75, read-out: LC50): > 100 µM
GI50 ([1]; SW-620): 3.38 µM
CC50 ([1]; SW-620, read-out: LC50): > 100 µM
GI50 ([1]; T47D): 3.5 µM
CC50 ([1]; T47D, read-out: LC50): > 100 µM
GI50 ([1]; TK-10): 7.47 µM
CC50 ([1]; TK-10, read-out: LC50): > 100 µM
GI50 ([1]; U-251): 4.41 µM
CC50 ([1]; U-251, read-out: LC50): 58.6 µM
GI50 ([1]; UACC-62): 9.54 µM
CC50 ([1]; UACC-62, read-out: LC50): 89.7 µM
GI50 ([1]; UACC-257): 23.8 µM
CC50 ([1]; UACC-257, read-out: LC50): > 100 µM
GI50 ([1]; UO-31): 5.26 µM
CC50 ([1]; UO-31, read-out: LC50): 49.9 µM
Growth Percent (SF-539): −41.82%
GI50 (glioblastoma (SF-295); Homo sapiens, SF-295): 8.98 µM
CC50 (glioblastoma (SF-295); Homo sapiens, SF-295, read-out: LC50): > 100 µM
TGI (glioblastoma (SF-295); SF-295 (CNS Cancer), five dose): >1.00E−4
Growth Percent ([2]; Breast Cancer, BT-549): 17.42%
Growth Percent ([2]; Breast Cancer, HS 578T): 7.41%
Growth Percent ([2]; Breast Cancer, MCF7): −25.89%
Growth Percent ([2]; Breast Cancer, MDA-MB-231/ATCC): 39.51%
Growth Percent ([2]; Breast Cancer, MDA-MB-468): 32.20%
Growth Percent ([2]; Breast Cancer, T-47D): −8.55%
Growth Percent ([2]; CNS Cancer, SF-268): 43.09%
Growth Percent ([2]; CNS Cancer, SNB-19): 57.90%
Growth Percent ([2]; CNS Cancer, SNB-75): 37.28%
Growth Percent ([2]; CNS Cancer, U251): 18.85%
Growth Percent ([2]; Colon Cancer, COLO 205): 34.38%
Growth Percent ([2]; Colon Cancer, HCC-2998): 81.46%
Growth Percent ([2]; Colon Cancer, HCT-116): −23.66%
Growth Percent ([2]; Colon Cancer, HT29): −29.01%
Growth Percent ([2]; Colon Cancer, KM12): 34.70%
Growth Percent ([2]; Colon Cancer, SW-620): −4.13%
Growth Percent ([2]; Leukemia, CCRF-CEM): 12.99%
Growth Percent ([2]; Leukemia, HL-60(TB)): 45.99%
Growth Percent ([2]; Leukemia, K-562): 4.81%
Growth Percent ([2]; Leukemia, MOLT-4): 5.52%
Growth Percent ([2]; Leukemia, RPMI-8226): −13.60%
Growth Percent ([2]; Leukemia, SR): 3.61%
Growth Percent ([2]; Melanoma, LOX IMVI): −52.69%
Growth Percent ([2]; Melanoma, M14): 54.77%
Growth Percent ([2]; Melanoma, MALME-3M): 35.26%
Growth Percent ([2]; Melanoma, MDA-MB-435): 42.59%
Growth Percent ([2]; Melanoma, SK-MEL-2): 29.07%
Growth Percent ([2]; Melanoma, SK-MEL-5): 64.76%
Growth Percent ([2]; Melanoma, SK-MEL-28): 41.25%
Growth Percent ([2]; Melanoma, UACC-62): 28.83%
Growth Percent ([2]; Melanoma, UACC-257): 79.56%
Growth Percent ([2]; Non-small Cell Lung Cancer, A549/ATCC): 55.43%
Growth Percent ([2]; Non-small Cell Lung Cancer, EKVX): 71.36%
Growth Percent ([2]; Non-small Cell Lung Cancer, HOP-62): 27.50%
Growth Percent ([2]; Non-small Cell Lung Cancer, HOP-92): 64.31%
Growth Percent ([2]; Non-small Cell Lung Cancer, NCI-H23): 63.65%
Growth Percent ([2]; Non-small Cell Lung Cancer, NCI-H226): 94.46%
Growth Percent ([2]; Non-small Cell Lung Cancer, NCI-H322M): 72.84%
Growth Percent ([2]; Non-small Cell Lung Cancer, NCI-H460): 43.90%
Growth Percent ([2]; Ovarian Cancer, IGROV1): −12.12%
Growth Percent ([2]; Ovarian Cancer, NCI/ADR-RES): 78.93%
Growth Percent ([2]; Ovarian Cancer, OVCAR-3): −3.79%
Growth Percent ([2]; Ovarian Cancer, OVCAR-4): 52.06%
Growth Percent ([2]; Ovarian Cancer, OVCAR-5): 109.51%
Growth Percent ([2]; Ovarian Cancer, OVCAR-8): 17.89%
Growth Percent ([2]; Ovarian Cancer, SK-OV-3): 37.28%
Growth Percent ([2]; Prostate Cancer, DU-145): 12.72%
Growth Percent ([2]; Prostate Cancer, PC-3): 28.08%
Growth Percent ([2]; Renal Cancer, 786-0): −0.52%
Growth Percent ([2]; Renal Cancer, ACHN): 5.12%
Growth Percent ([2]; Renal Cancer, CAKI-1): 37.11%
Growth Percent ([2]; Renal Cancer, RXF 393): −6.67%
Growth Percent ([2]; Renal Cancer, SN12C): 46.55%
Growth Percent ([2]; Renal Cancer, TK-10): 10.18%
Growth Percent ([2]; Renal Cancer, UO-31): 22.19%
